Key:
[1] = target: T1, human Oxytocin Receptor (hOTR) (Homo sapiens, UniProt P30559); assay: Oxytocin receptor (OTR) antagonist assay (FLIPR calcium, CHEM-1-hOTR cells); assay type: cell-based
T1 construct: host or cells: CHEM-1 (ready-to-assay frozen cells)
T1 sequence (P30559 1-389): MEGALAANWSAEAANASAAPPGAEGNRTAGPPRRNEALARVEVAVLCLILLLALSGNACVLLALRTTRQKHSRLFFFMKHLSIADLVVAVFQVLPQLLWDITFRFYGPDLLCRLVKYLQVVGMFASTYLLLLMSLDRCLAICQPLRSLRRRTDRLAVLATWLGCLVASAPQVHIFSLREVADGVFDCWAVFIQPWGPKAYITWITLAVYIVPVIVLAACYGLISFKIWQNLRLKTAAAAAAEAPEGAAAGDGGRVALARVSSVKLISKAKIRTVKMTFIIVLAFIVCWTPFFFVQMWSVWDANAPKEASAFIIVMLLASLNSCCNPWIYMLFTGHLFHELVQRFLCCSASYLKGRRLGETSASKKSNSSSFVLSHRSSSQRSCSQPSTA
Experimental: This assay was performed in CHEM-1 cells expressing the human Oxytocin Receptor (hOTR) to determine the inhibitory effect of the compounds of the invention on the human Oxytocin receptor. Oxytocin evokes an increase in intracellular calcium in CHEM-1-hOTR cells which is measured in a fluorescence assay on the FLIPR^TETRA using calcium sensitive dyes. Test compounds were assessed for their ability to affect the magnitude of the response to oxytocin, with antagonists showing a concentration-dependent reduction in the oxytocin-mediated fluorescence.
CHEM-1-hOTR ready was used to assay frozen cells (Eurofins #HTS09ORTA) which are supplied with a proprietary Media Component.
Day 1 of the assay: Cells were thawed in a 37° C. water bath and diluted with the supplied Media Component to a final volume of 10 ml. The cell suspension was centrifuged at 1000 rpm for 3 min at room temperature and the supernatant was discarded. The cell pellet was resuspended in Media Component (10.5 ml) and the cells (25 μL) were dispensed into a poly-D-lysine coated black, clear bottomed, 384-well plate. The plates were incubated overnight at 37° C., 5% CO2.
Day 2: At the start of each assay day the potency of oxytocin was assessed and an EC80 concentration was determined for subsequent compound profiling. Assays were performed using a two-step addition protocol on the FLIPR^TETRA; first addition of 5 μl of control or test compound at 10× final in assay buffer with 15 min incubation at 37° C., 5% CO2 followed by 10 μl of oxytocin at 6× final concentration in assay buffer. Changes in fluorescence were monitored for 3 min after both additions on the FLIPR^TETRA using 470-495 nm excitation and 515-575 nm emission wavelengths. The assay buffer consisted of HBSS (+Ca/+Mg) supplemented with 20 mM HEPES, and for the preparation of the oxytocin agonist only, 0.1% w/v bovine serum albumin. The assay was initiated by the removal of growth media from the cells and replaced with 45 μl of Calcium-6 dye (Molecular Devices) prepared at 1× in assay buffer. Cells were loaded with dye for 60-90 min at 37° C., 5% CO2 before initiation of the FLIPR^TETRA protocol. […] For compound profiling, test compounds were first serially diluted in DMSO (10-point curve, 1:3 dilutions) then diluted 33.3-fold in assay buffer prior to addition to the dye loaded cells on the FLIPR^TETRA. At the end of the incubation period 10 μl of oxytocin in assay buffer containing 0.1% BSA was added at the previously determined EC80 concentration.
In-plate controls for the assay included a L-368,899 concentration-response curve as the reference OTR antagonist and an oxytocin concentration-response curve to confirm the reproducibility of the EC80 used for the compound challenge.

[2] = target: T2, human Arginine Vasopressin Receptor V2 (AVPR2) (Homo sapiens, UniProt P30518); assay: Vasopressin V2 receptor antagonist assay (TR-FRET cAMP, 1321N1 cells); assay type: cell-based
T2 construct: host or cells: 1321N1 (cAMPZen V2 assay ready frozen cells)
T2 sequence (P30518 whole entry): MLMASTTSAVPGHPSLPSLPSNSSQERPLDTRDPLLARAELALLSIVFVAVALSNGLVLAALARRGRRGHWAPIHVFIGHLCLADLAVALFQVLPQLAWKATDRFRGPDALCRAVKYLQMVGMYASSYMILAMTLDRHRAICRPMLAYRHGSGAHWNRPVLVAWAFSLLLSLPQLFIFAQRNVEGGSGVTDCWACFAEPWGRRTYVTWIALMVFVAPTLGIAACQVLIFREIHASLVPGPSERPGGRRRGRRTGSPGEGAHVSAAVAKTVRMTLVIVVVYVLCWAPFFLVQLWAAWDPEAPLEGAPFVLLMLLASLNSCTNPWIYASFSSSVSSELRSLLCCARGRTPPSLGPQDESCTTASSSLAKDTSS
Experimental: The purpose of the assay was to determine the inhibitory effect of synthesized compounds on the Vasopressin receptor 2. The assay was performed in commercially available 1321N1 cells expressing the human Arginine Vasopressin Receptor V2 (AVPR2) (Perkin Elmer #ES-363-CF). Arginine Vasopressin (AVP) evokes an increase in intracellular cAMP in these cells which is measured in a TR-FRET assay using a Europium cAMP tracer and ULight labelled antibody reagents contained in a LANCE Ultra cAMP kit (Perkin Elmer #TRF0263). Increases in cAMP in the assay result in a reduction in TR-FRET as the cAMP produced by the stimulated cells competes with the Eu-cAMP tracer for binding sites on the ULight labelled antibody. Test compounds were assessed for their ability to affect the magnitude of the response to AVP, with antagonists showing a concentration-dependent decrease in the AVP-mediated reduction in TR-FRET signal.
cAMPZen V2 assay ready cells were thawed at 37° C. and resuspended directly from frozen in 9 ml growth medium consisting of DMEM supplemented with 10% v/v fetal bovine serum, 1× non-essential amino acids, and 1 mM sodium pyruvate. Cells were spun at 1000 rpm for 3 minutes and the supernatant was carefully removed and discarded. The pellet was resuspended in 5 ml stimulation buffer and the cell density determined using the Vi-Cell automated cell counter. The cell suspension was diluted to a 0.2×10^6/ml suspension ready for plating. To all wells of a white 384-well Optiplate (Perkin Elmer #6007299) 5 μL of cells in stimulation buffer were dispensed (1,000 cells per well). Stimulation buffer consisted of HBSS (+Ca/+Mg) supplemented with 5 mM HEPES, 0.1% BSA stabiliser and 0.5 mM IBMX.
At the start of each assay day the potency of AVP was assessed and an EC80 concentration determined for subsequent compound profiling. Assays were performed by first an addition of 2.5 μl of control or test compound at 4× final concentration in stimulation buffer followed by 2.5 μl of AVP at 4× final concentration in stimulation buffer. After a 1 hour reaction, detection reagents were added by first an addition of 5 μl EU-cAMP tracer, followed by 5 μl ULight-anti-cAMP both diluted as per the manufacturer's instructions. After a one hour incubation, plates were ready to be read (signals then remained stable for up to 24 hours). Changes in time resolved fluorescence were monitored with excitation via a laser (337 nm) measuring both 615 nm and 665 nm emission wavelengths. […] For compound profiling, test compounds were dispensed by the Labcyte Echo (10-point curve, 1:3 dilutions) in a target 0.1 μl volume then diluted 750-fold in stimulation buffer containing 3% DMSO prior to addition to the cells. At the end of the incubation period, 2.5 μl of AVP in stimulation buffer was added at the previously determined EC80 concentration.
In-plate controls for the assay included a Tolvaptan concentration-response curve as the reference V2 antagonist and an AVP concentration-response curve to confirm the reproducibility of the EC80 used for the compound challenge.

Cc1nccnc1N1CC2(CN(C(=O)N3c4ccc(Cl)cc4OCC3C)C2)C1 (stereo not drawn) [20-10]
IC50 [1]: 100 to 500 nM | IC50 [2]: 500 to 1000 nM

CC1COc2cc(F)c(F)cc2N1C(=O)N1CC2(C1)CN(c1ccc(F)cn1)C2 (stereo not drawn) [19-5]
IC50 [1]: 100 to 500 nM | IC50 [2]: < 100 nM

CC1COc2cc(F)ccc2N1C(=O)N1CC2(C1)CN(c1ccc(F)cn1)C2 (stereo not drawn) [12-1, (7-fluoro-3-methyl-2,3-dihydro-4H-benzo[b][1,4]oxazin-4-yl)(6-(5-fluoropyridin-2-yl)-2,6-diazaspiro[3.3]heptan-2-yl)methanone]
IC50 [1]: 500 to 1000 nM | IC50 [2]: 100 to 500 nM

CC1CN(C(=O)N2CC3(C2)CN(c2ccc(F)cn2)C3)c2ccc(F)cc2O1 (single isomer, unassigned) [9-4-B]
IC50 [1]: ≥ 1000 nM | IC50 [2]: ≥ 1000 nM

CC1COc2cc(Cl)ccc2N1C(=O)N1CC2(C1)CN(c1cccnn1)C2 (stereo not drawn) [9-1, (7-chloro-3-methyl-2,3-dihydro-4H-benzo[b][1,4]oxazin-4-yl)(6-(pyridazin-3-yl)-2,6-diazaspiro[3.3]heptan-2-yl)methanone]
IC50 [1]: 100 to 500 nM | IC50 [2]: ≥ 1000 nM

COc1ccnc(N2CC3(CN(C(=O)N4c5ccc(Cl)cc5OCC4C)C3)C2)c1 (single isomer, unassigned) [20-8-B]
IC50 [1]: 100 to 500 nM | IC50 [2]: < 100 nM

O=C(N1CC2(C1)CN(c1ccc(F)cn1)C2)N1CCOCc2cc(Cl)ccc21 [8-4]
IC50 [1]: ≥ 1000 nM

Cc1nc(N2CC3(CN(C(=O)N4c5ccc(Cl)cc5OCC4C)C3)C2)ncc1F (stereo not drawn) [20-7]
IC50 [1]: 100 to 500 nM | IC50 [2]: 100 to 500 nM

O=C(N1CC2(C1)CN(c1cnccn1)C2)N1CCOCc2cc(Cl)ccc21 [8-13]
IC50 [1]: ≥ 1000 nM | IC50 [2]: ≥ 1000 nM

CC1COc2cc(Cl)ccc2N1C(=O)N1CC2(C1)CN(c1cccnc1)C2 (stereo not drawn) [20-1, (7-chloro-3-methyl-2,3-dihydro-4H-benzo[b][1,4]oxazin-4-yl)(6-(pyridin-3-yl)-2,6-diazaspiro[3.3]heptan-2-yl)methanone]
IC50 [1]: 100 to 500 nM | IC50 [2]: ≥ 1000 nM

CC1COc2cc(F)ccc2N1C(=O)N1CC2(C1)CN(c1cc(C#N)ccn1)C2 (single isomer, unassigned) [20-3-B]
IC50 [1]: 100 to 500 nM | IC50 [2]: 100 to 500 nM

CC1COc2cc(Cl)c(F)cc2N1C(=O)N1CC2(C1)CN(c1cccnn1)C2 (single isomer, unassigned) [19-4-A]
IC50 [1]: 100 to 500 nM | IC50 [2]: ≥ 1000 nM

Cc1cncc(N2CC3(CN(C(=O)N4c5ccc(F)cc5OCC4C)C3)C2)n1 (stereo not drawn) [20-2]
IC50 [1]: 100 to 500 nM | IC50 [2]: < 100 nM

CCC1COc2cc(Cl)ccc2N1C(=O)N1CC2(C1)CN(c1ccccn1)C2 (stereo not drawn) [11-1, (7-chloro-3-ethyl-2,3-dihydro-4H-benzo[b][1,4]oxazin-4-yl)(6-(pyridin-2-yl)-2,6-diazaspiro[3.3]heptan-2-yl)methanone]
IC50 [1]: < 100 nM | IC50 [2]: < 100 nM

CC1CN(C(=O)N2CC3(C2)CN(c2ccc(F)cn2)C3)c2ccc(Cl)cc2O1 (single isomer, unassigned) [9-3-A]
IC50 [1]: 500 to 1000 nM | IC50 [2]: ≥ 1000 nM

O=C(N1CC2(C1)CN(c1cnccn1)C2)N1CCC(O)c2cc(Cl)ccc21 (stereo not drawn) [13-3]
IC50 [1]: ≥ 1000 nM | IC50 [2]: ≥ 1000 nM

CC1Cc2cc(Cl)ccc2N1C(=O)N1CC2(C1)CN(c1ccc(F)cn1)C2 (stereo not drawn) [8-16]
IC50 [1]: < 100 nM | IC50 [2]: < 100 nM

O=C(N1CC2(C1)CN(c1ccc(F)cn1)C2)N1CCOc2cc(Cl)ccc21 [9-7]
IC50 [1]: ≥ 1000 nM | IC50 [2]: ≥ 1000 nM

O=C(N1CC2(C1)CN(c1ccc(F)cn1)C2)N1CCC(F)c2cc(Cl)ccc21 (stereo not drawn) [14-1, (6-chloro-4-fluoro-3,4-dihydroquinolin-1(2H)-yl)(6-(5-fluoropyridin-2-yl)-2,6-diazaspiro[3.3]heptan-2-yl)methanone]
IC50 [1]: ≥ 1000 nM | IC50 [2]: ≥ 1000 nM

Cc1ccnc(N2CC3(CN(C(=O)N4c5ccc(F)cc5OCC4C)C3)C2)c1 (single isomer, unassigned) [20-4-B]
IC50 [1]: 500 to 1000 nM | IC50 [2]: < 100 nM

CC1COc2cc(Cl)c(F)cc2N1C(=O)N1CC2(C1)CN(c1ncccn1)C2 (stereo not drawn) [19-2]
IC50 [1]: 500 to 1000 nM | IC50 [2]: ≥ 1000 nM

O=C(N1CC2(C1)CN(c1ccccn1)C2)N1CCOCc2cc(Cl)ccc21 [8-12]
IC50 [1]: 500 to 1000 nM | IC50 [2]: ≥ 1000 nM

COc1ccnc(N2CC3(CN(C(=O)N4c5ccc(Cl)cc5OCC4C)C3)C2)c1 (stereo not drawn) [20-8]
IC50 [1]: 100 to 500 nM | IC50 [2]: 100 to 500 nM

Cc1ccnc(N2CC3(CN(C(=O)N4c5ccc(Cl)cc5OCC4C)C3)C2)n1 (stereo not drawn) [20-12]
IC50 [1]: 100 to 500 nM | IC50 [2]: < 100 nM

CC1CN(C(=O)N2CC3(C2)CN(c2ccc(F)cn2)C3)c2ccc(Cl)cc2O1 (stereo not drawn) [9-3]
IC50 [1]: 500 to 1000 nM | IC50 [2]: ≥ 1000 nM

CC1COc2cc(Cl)ccc2N1C(=O)N1CC2(C1)CN(c1noc3cccnc13)C2 (stereo not drawn) [18-3]
IC50 [1]: ≥ 1000 nM | IC50 [2]: 100 to 500 nM

Cc1ccnc(N2CC3(CN(C(=O)N4c5ccc(Cl)cc5OCC4C)C3)C2)c1 (stereo not drawn) [20-11]
IC50 [1]: 100 to 500 nM | IC50 [2]: < 100 nM

CC1COc2cc(Cl)c(F)cc2N1C(=O)N1CC2(C1)CN(c1ncccn1)C2 (single isomer, unassigned) [19-2-B]
IC50 [1]: 500 to 1000 nM | IC50 [2]: 100 to 500 nM

O=C(N1CC2(C1)CN(c1cnccn1)C2)N1CCC(O)c2cc(Cl)ccc21 (single isomer, unassigned) [13-3-A]
IC50 [1]: ≥ 1000 nM | IC50 [2]: ≥ 1000 nM

O=C(N1CC2(C1)CN(c1ccc(F)cn1)C2)N1CCC(O)c2cc(Cl)ccc21 (stereo not drawn) [13-1, (6-chloro-4-hydroxy-3,4-dihydroquinolin-1(2H)-yl)(6-(5-fluoropyridin-2-yl)-2,6-diazaspiro[3.3]heptan-2-yl)methanone]
IC50 [1]: ≥ 1000 nM

CC1COc2cc(F)ccc2N1C(=O)N1CC2(C1)CN(c1noc3ccccc13)C2 (stereo not drawn) [4-3]
IC50 [2]: ≥ 1000 nM

O=C(N1CC2(C1)CN(c1ncc(F)cn1)C2)N1CCOc2cc(Cl)ccc21 [4-2]
IC50 [2]: ≥ 1000 nM
